Assay results published in ChEMBL document CHEMBL1201862, “PubChem BioAssay data set” (2004).
Activity calls are given as the source filed them.

Tests used:
Bcl-2-like protein 10 = Bcl-2-like protein 10 (Homo sapiens, UniProt Q9HD36); assay: Biochemical TR3 FP assay of Bcl-B inhibitor potency, EC50 (AID 1243); assay type: functional
[1] = Vero E6 cell cytotoxicity, dose response, cytotoxicity control for non-replicating M. tuberculosis project, secondary assay (AID 492998); assay type: functional, VeroE6; conditions: Vero C1008
HeLa = assay: Cytotoxicity counterscreen assay for transcriptional activators of heat shock protein 70 (Hsp70). [Related pubchem assays: 1203, 1252 ]; assay type: functional; conditions: Homo sapiens;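 further: cells exposed to compound for 16 hours before readout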
cells = assay type: functional
[2] = biological target: T1, Neuropeptide Y receptor type 2 (Homo sapiens, UniProt P49146); assay: NPY-Y2 antagonist potency, selectivity check, dose response, counter-screen for NPY-Y1 antagonist project, cell-based (AID 1278); assay type: functional
T1 sequence (P49146 whole entry): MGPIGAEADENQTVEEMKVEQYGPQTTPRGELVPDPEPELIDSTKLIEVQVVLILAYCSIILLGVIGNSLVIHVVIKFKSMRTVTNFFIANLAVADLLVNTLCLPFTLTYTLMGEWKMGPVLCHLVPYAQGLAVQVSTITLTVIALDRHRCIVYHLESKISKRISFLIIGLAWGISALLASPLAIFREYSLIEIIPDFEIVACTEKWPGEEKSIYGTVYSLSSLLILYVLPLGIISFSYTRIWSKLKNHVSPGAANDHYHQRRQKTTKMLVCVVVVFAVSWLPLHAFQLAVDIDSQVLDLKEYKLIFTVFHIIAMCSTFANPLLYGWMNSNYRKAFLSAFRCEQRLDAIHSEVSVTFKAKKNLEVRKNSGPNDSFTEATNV

[3] = biological target: T2, Neuropeptide Y receptor type 1 (Homo sapiens, UniProt P25929); assay: NPY-Y1 receptor antagonist potency, dose response, cell-based (AID 1277); assay type: functional
T2 sequence (P25929 whole entry): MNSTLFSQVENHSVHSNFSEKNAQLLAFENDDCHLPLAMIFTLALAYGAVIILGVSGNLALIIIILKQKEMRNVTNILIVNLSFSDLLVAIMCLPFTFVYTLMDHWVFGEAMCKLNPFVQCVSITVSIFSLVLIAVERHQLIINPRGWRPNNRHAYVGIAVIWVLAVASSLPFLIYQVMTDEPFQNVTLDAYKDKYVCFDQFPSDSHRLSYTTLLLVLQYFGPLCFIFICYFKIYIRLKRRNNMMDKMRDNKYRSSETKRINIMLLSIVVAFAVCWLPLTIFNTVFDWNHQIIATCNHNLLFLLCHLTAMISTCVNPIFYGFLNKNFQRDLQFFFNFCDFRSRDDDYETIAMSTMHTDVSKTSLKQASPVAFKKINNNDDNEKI

[4] = biological target: T1, Neuropeptide Y receptor type 2; assay type: functional, cell-based
[5] = biological target: T2, Neuropeptide Y receptor type 1; assay type: functional
Estrogen receptor = biological target: T3, Estrogen receptor (Homo sapiens, UniProt P03372); assay: potentiators of ERα–SRC-1 coactivator binding, dose response, biochemical, TR-FRET, ERα LBD (AID 737)
T3 sequence (P03372 whole entry): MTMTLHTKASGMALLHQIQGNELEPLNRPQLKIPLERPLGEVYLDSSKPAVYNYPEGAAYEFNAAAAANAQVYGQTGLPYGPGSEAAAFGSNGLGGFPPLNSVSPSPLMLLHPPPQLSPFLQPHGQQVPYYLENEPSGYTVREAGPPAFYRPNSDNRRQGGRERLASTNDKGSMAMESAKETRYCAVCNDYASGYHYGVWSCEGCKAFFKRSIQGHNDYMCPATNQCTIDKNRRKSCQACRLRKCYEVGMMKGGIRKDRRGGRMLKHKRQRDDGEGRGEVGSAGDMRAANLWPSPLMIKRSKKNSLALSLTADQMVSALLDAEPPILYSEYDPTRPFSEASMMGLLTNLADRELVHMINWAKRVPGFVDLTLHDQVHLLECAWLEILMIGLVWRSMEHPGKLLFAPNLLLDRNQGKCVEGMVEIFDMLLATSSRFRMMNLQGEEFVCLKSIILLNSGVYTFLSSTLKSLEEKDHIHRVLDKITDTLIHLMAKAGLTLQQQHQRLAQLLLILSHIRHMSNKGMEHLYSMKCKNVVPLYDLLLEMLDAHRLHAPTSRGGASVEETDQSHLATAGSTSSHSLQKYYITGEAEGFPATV

[6] = biological target: Lytic switch protein BZLF1 (Epstein-Barr virus (strain B95-8) (HHV-4) (Human herpesvirus 4), UniProt P03206); assay: EBV ZTA inhibitors, dose response, counter-screen for EBNA-1 inhibitor project, biochemical, fluorescence polarization, Epstein-Barr virus, 1536-well (AID 2377); set-up: species or system human gammaherpesvirus 4;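 further: fluorescence polarization of Cy5-labelled ZRE DNA probe bound by purified Zta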
Sequence of Lytic switch protein BZLF1 (P03206 whole entry): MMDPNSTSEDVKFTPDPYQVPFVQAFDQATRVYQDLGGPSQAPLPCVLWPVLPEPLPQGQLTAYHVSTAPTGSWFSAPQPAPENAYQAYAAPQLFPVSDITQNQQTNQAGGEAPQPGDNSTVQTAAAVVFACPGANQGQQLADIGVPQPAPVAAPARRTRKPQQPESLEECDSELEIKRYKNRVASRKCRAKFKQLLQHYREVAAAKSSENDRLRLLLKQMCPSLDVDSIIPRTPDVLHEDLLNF

[7] = biological target: Epstein-Barr nuclear antigen 1 (Epstein-Barr virus (strain B95-8) (HHV-4) (Human herpesvirus 4), UniProt P03211); assay: EBNA-1 inhibitors, dose response, biochemical, fluorescence polarization, 1536-well (AID 2381); set-up: species or system human gammaherpesvirus 4;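 further: fluorescence polarization of a Cy5 DNA probe bound by EBNA-1 protein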
Sequence of Epstein-Barr nuclear antigen 1 (P03211 whole entry): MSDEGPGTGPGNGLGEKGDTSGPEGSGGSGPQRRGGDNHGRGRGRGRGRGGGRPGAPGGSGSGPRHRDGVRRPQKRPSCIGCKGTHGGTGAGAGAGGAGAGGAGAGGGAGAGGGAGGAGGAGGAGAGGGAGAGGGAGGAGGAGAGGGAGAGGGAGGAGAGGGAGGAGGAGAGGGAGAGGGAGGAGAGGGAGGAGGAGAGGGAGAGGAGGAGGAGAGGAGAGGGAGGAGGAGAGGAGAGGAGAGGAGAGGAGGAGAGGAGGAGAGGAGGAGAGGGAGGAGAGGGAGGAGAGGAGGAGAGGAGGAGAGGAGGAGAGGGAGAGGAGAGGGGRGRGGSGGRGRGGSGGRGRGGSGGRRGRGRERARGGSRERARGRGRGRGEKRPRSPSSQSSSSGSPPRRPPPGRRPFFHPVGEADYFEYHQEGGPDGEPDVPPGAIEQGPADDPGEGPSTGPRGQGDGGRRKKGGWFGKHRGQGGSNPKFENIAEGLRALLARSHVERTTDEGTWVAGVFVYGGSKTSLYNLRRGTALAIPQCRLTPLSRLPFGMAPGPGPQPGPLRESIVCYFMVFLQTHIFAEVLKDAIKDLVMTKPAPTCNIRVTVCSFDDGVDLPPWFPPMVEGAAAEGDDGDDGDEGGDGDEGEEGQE

[8] = enhancers of respiration in Yfh1-depleted yeast, dose response, Friedreich's ataxia, plus single-dose screen (AID 1465); assay type: functional;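 further: yeast depleted of Yfh1p frataxin homolog grown on glycerol needing respiration; WST-1 tetrazolium dye reduction as measure of cellular dehydrogenase metabolic activity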
[9] = biological target: T4, Sentrin-specific protease 8 (Homo sapiens, UniProt Q96LD8); assay type: functional;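 further: luminescence read-out of SENP8 inhibition, dose-response confirmation following an ultra-high-throughput screen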
T4 sequence (Q96LD8 whole entry): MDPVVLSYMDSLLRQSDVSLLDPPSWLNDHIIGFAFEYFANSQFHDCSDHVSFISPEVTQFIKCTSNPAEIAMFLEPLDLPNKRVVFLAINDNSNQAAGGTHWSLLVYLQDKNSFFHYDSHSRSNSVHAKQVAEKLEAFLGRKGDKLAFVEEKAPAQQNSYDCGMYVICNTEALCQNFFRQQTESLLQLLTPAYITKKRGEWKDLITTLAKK

[10] = MC4R antagonists, dose response, counter-screen for LGR2 antagonist project, cell-based, plate reader, cherry pick (AID 743444); assay type: functional;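 further: transfected HEK 293 cells stimulated with alpha-MSH peptide; potency of inhibitors of the alpha-MSH evoked signal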
Caspase-3 = biological target: T5, Caspase-3 (Homo sapiens, UniProt P42574); assay type: functional;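 further: Dose-response selectivity test against caspase-3 for candidate inhibitors of sentrin-specific proteases (SENPs)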
T5 sequence (P42574 whole entry): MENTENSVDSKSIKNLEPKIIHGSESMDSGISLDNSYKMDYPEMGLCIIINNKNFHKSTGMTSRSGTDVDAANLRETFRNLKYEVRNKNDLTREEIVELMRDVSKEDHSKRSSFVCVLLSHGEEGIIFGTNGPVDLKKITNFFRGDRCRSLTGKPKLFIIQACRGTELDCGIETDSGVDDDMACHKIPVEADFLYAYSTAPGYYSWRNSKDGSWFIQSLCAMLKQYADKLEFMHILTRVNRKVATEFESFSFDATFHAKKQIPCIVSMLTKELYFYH

[11] = Luminescence-based counterscreen assay for KLF5 inhibitors: dose response cell-based high throughput screening assay to identify cytotoxic compounds using the IEC-6 intestinal epithelial cell line. [Related pubchem assays: 1700 (Primary screen.), 1834 (Confirmation screen.), 1858 (Summary AID.), 1905 (Counterscreen.)]; assay type: functional
[12] = biological target: T6, Sentrin-specific protease 7 (Homo sapiens, UniProt Q9BQF6); assay type: functional;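 further: Luminescence-based dose-response confirmation of ultra-high-throughput screening hits, measuring inhibition of SENP7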
T6 sequence (Q9BQF6 whole entry): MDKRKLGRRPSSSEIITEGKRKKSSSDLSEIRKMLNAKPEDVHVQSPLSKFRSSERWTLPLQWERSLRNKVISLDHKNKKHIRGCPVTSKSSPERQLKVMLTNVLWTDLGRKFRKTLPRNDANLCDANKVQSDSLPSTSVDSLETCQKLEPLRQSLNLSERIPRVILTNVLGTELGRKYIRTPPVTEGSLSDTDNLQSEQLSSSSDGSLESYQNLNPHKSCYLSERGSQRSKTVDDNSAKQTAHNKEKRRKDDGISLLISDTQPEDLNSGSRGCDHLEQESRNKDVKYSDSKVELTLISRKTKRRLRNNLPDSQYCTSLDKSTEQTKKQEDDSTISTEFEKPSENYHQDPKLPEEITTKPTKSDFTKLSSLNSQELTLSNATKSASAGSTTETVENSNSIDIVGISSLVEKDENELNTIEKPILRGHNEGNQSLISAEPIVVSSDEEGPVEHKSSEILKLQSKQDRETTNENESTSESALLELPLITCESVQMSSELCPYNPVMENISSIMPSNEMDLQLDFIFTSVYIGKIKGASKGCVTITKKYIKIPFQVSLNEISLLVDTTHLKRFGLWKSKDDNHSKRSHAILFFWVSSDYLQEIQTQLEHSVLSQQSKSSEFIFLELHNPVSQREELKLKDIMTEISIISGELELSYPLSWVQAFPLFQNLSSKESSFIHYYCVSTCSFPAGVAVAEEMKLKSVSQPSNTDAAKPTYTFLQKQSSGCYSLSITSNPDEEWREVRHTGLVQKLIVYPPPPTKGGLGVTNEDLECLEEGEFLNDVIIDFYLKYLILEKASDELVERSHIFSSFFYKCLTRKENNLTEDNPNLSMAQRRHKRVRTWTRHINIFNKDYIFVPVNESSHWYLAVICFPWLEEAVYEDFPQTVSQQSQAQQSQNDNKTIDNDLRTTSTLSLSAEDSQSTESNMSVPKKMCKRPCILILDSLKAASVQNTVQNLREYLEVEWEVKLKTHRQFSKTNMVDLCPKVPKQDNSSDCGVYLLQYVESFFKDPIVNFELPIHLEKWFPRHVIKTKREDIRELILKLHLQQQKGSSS

Trypsin = Trypsin (Sus scrofa, UniProt P00761); assay: porcine trypsin inhibitors, dose response, selectivity assay for Rce1 protease inhibitor project, biochemical, quenched peptide fluorescence, cherry-pick (AID 488789)
Sequence of Trypsin (P00761 whole entry): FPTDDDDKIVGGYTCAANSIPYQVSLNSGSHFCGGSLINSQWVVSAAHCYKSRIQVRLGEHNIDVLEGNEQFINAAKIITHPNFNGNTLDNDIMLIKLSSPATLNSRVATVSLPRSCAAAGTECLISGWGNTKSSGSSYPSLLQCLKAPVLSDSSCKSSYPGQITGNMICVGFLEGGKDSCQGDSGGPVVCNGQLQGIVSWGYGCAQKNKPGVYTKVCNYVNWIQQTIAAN

CAAX prenyl protease 2 = biological target: T7, CAAX prenyl protease 2 (Saccharomyces cerevisiae S288c, UniProt Q03530); assay type: biochemical
T7 sequence (Q03530 whole entry): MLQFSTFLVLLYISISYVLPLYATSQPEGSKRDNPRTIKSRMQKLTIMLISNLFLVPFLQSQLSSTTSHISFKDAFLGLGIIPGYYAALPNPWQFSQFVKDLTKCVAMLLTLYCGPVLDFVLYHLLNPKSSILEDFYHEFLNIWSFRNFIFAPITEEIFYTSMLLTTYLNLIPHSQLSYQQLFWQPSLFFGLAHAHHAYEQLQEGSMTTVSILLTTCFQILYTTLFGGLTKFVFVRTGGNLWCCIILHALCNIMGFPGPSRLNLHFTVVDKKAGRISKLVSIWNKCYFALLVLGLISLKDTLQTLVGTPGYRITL

[13] = LGR2 antagonists, dose response, cell-based, HEK293, CRE-luciferase reporter, cherry pick, set 2 (AID 743343); assay type: functional;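 further: transfected cells were stimulated with diluted bursicon conditioned medium after compound addition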
[14] = biological target: T8, Sentrin-specific protease 6 (Homo sapiens, UniProt Q9GZR1); assay type: functional;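 further: Luminescence-based dose-response confirmatory assay of SENP6 inhibition, following up an ultra-high-throughput screen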
T8 sequence (Q9GZR1 whole entry): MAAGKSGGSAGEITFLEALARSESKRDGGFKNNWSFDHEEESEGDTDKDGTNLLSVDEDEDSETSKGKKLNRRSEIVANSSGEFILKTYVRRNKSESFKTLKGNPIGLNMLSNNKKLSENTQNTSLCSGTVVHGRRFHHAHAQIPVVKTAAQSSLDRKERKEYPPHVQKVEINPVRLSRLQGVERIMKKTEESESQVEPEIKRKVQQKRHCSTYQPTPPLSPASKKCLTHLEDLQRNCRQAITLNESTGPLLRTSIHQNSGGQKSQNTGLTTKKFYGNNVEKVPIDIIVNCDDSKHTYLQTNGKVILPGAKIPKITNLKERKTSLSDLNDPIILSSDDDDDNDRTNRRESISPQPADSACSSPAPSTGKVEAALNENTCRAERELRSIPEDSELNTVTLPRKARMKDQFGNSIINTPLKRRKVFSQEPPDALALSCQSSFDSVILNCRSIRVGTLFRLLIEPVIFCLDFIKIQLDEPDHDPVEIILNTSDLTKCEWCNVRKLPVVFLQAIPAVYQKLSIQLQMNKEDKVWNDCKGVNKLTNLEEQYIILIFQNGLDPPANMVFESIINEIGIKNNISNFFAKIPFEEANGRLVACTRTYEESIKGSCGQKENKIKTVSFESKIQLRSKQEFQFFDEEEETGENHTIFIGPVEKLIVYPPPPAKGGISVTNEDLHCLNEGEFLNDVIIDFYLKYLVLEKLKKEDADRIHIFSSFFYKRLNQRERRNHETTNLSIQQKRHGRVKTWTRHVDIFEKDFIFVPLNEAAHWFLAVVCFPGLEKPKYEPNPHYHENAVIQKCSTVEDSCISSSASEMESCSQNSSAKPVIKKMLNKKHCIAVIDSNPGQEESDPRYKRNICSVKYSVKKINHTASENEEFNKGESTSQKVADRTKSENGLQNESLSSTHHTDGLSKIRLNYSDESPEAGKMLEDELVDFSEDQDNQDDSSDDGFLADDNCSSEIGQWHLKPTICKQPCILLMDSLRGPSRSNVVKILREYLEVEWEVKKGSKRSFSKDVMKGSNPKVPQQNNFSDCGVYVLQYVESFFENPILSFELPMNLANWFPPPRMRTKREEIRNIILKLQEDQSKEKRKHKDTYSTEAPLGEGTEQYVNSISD

[15] = biological target: T9, Mannose-6-phosphate isomerase (Homo sapiens, UniProt P34949); assay: inhibitors of human PMI, primary screen, biochemical, fluorescence intensity, coupled assay (AID 1209)
T9 sequence (P34949 whole entry): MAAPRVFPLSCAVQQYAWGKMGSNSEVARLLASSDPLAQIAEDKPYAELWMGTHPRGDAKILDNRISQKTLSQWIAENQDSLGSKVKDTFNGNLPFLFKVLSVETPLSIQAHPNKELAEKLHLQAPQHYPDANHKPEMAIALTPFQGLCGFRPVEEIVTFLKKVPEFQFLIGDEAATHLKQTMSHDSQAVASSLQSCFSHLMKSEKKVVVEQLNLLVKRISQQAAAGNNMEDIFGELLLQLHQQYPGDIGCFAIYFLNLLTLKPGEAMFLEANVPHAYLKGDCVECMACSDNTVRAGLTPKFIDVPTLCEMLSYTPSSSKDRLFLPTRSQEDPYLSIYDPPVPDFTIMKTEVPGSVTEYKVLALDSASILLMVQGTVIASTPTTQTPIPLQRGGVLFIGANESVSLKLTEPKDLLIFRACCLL

[16] = biological target: FAD-linked sulfhydryl oxidase ALR (Homo sapiens, UniProt P55789); assay: inhibitors of human ALR sulfhydryl oxidase, dose response, biochemical, H2O2 detection, luminescence, cherry-pick (AID 493248)
Sequence of FAD-linked sulfhydryl oxidase ALR (P55789 whole entry): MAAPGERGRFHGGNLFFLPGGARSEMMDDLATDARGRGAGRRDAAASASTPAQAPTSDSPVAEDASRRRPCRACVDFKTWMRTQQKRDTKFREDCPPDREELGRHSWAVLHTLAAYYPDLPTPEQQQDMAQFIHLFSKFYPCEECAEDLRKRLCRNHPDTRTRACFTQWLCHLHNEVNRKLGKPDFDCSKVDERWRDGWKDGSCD

[17] = biological target: T9, Mannose-6-phosphate isomerase; assay: human PMI inhibitors, high substrate, primary screen, biochemical, fluorescence intensity, high mannose 6-phosphate (AID 1220)
NADPH oxidase 1 = NADPH oxidase 1 (Homo sapiens, UniProt Q9Y5S8); assay type: functional, cell-based;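 further: Cell-based assay with luminescence read-out, IC50 derived from inhibitor dose-response curves; intracellular ROS from endogenous NOX1 in intact HT29 colon cancer cells; potency of inhibitors that lower the ROS luminescence signal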
Sequence of NADPH oxidase 1 (Q9Y5S8 whole entry): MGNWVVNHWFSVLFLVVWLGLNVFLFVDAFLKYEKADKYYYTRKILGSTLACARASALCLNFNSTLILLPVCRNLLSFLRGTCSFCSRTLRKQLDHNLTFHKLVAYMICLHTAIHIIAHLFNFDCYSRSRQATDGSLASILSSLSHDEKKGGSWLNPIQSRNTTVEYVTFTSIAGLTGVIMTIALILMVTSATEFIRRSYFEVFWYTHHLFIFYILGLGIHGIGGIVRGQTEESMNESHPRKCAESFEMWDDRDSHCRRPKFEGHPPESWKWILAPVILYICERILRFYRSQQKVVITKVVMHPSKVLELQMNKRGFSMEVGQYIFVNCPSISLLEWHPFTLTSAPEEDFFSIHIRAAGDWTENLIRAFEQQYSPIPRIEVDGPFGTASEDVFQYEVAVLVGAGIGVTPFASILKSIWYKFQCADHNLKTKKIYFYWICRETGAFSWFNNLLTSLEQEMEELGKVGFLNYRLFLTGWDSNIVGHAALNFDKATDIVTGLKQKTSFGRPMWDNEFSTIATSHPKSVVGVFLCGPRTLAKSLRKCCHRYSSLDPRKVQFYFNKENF

Sequence of Bcl-2-like protein 10 (Q9HD36 whole entry): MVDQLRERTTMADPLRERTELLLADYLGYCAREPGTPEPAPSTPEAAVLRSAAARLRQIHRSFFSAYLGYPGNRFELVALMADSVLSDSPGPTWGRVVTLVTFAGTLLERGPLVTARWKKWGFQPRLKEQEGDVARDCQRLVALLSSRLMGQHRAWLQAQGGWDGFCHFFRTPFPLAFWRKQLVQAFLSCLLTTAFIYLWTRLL

Nc1ccc(S(=O)(=O)O)c2cccc(O)c12
EC50 (Bcl-2-like protein 10): 1.05 µM (active)

O=[N+]([O-])c1ccccc1C1Nc2cccc3cccc(c23)N1
CC50 [1]: 14.6 µM (active)
CC50 (HeLa): > 99 µM (not active)
IC50 (cells): 27.2 µM (active)

Cc1ccc(COC(=O)c2nn(-c3ccccc3)nc2N)cc1
IC50 [2]: 10.6 µM (not active)
IC50 [3]: 12 µM (not active)

Cc1ccc(C)c(NS(=O)(=O)c2cc(C(=O)Nc3ccccc3-c3ccccc3)ccc2C)c1
IC50 [4]: 0.298 µM (active)
IC50 [5]: > 35 µM (not active)

CCOc1ccccc1-c1nc(-c2ccc(NC(=O)c3ccc(Br)o3)cc2)no1
EC50 (Estrogen receptor): 12.7 µM (active)

Cc1cc(C(=O)OCC(=O)c2c(N)n(C)c(=O)n(C)c2=O)c(C)n1-c1ccccc1
IC50 [6]: > 111 µM (not active)
IC50 [7]: 13.1 µM (not active)

CC(C)NC(=O)/C(C#N)=C\c1ccc(N(C)C)o1
EC50 [8]: > 100 µM (active)

Nc1c(C(=O)Nc2cccc(C(=O)O)c2)sc2nc3c(cc12)CCCC3
IC50 [9]: 31 µM (active)
AC50 [10]: 3.29 µM (active)
IC50 (Caspase-3): 71.6 µM (active)
IC50 [11]: > 39.8 µM (not active)
IC50 [12]: 7.47 µM (active)
AC50 (Trypsin): 10.5 µM (active)
AC50 (CAAX prenyl protease 2): 47.8 µM (active)
AC50 [13]: 3.06 µM (active)
IC50 [14]: 15.1 µM (active)

Cn1cnnc1SCc1ccc(C(=O)N/N=C(\CCC(=O)O)c2ccc(C(C)(C)C)cc2)cc1
IC50 [15]: > 50 µM (not active)
AC50 [16]: 0.755 µM (active)
IC50 [17]: > 50 µM (not active)

COc1cc(-c2nc(-c3ccccc3)c(-c3ccccc3)[nH]2)cc(OC)c1O
IC50 (NADPH oxidase 1): 0.517 µM (active)
